Where a SMILES comes first, the peptide text is derived from it. Bridges are numbered along the chain shown (N, C = ends). [ ]: non-standard residue; d: D form. The star is where a group is joined. DOTA = O=C(O)CN1CCN(CC(=O)O)CCN(CC(=O)*)CCN(CC(=O)O)CC1; 1Nal = N[C@@H](Cc1cccc2ccccc12)C(=O)O; Thr(ol) = C[C@@H](O)[C@H](N)CO
Key:
[1] = Determination of LogP (1-octanol/Dulbecco's PBS partition); format: physicochemical
Method: Radiolabeled peptide (5 µL, 3–5 MBq) was added to Dulbecco’s PBS (495 µL) along with 1-Octanol (500 µL) in an Eppendorf tube. The tubes were vortexed for 5 min and centrifuged to separate phases. A volume of 10 µL of each phase was transferred to new Eppendorf tubes. The fractions were counted in an well counter (Atomlab 950) and LogP were calculated [[…]].

AR42J xenograft = format: in vivo, mice
Method: All animal experiments were planned and performed following the national legislation by the Animal Experiments Inspectorate in Denmark. Male SCID (severe combined immunodeficiency) mice (bred in-house, age 9–12 weeks) had access to water and chow ad libitum. Anesthesia with approximately 2% isoflurane in 100% oxygen was applied and the mice were inoculated subcutaneously in the left shoulder with 1 × 10^6 AR42J cells 12–15 days before the experiment (tumor weight 364 ± 58 mg). For biodistribution, the AR42J xenografted mice were injected in the tail vein with [^68Ga]Ga-NOTA-NOC (50.2 ± 5 pmol, 627 ± 116 kBq, n = 4), [^68Ga]Ga-DOTA-NOC (42.5 ± 6 pmol, 509 ± 24 kBq, n = 3), or [^18F]AlF-NOTA-NOC (47.0 ± 10 pmol, 1017 ± 279 kBq, n = 3 for each time point). After 1 or 3 h, the mice were sacrificed and the organs were collected and weighed. The organ radioactivities were quantified in an Atomlab 950 well spectrometer which was cross calibrated to a high-purity germanium detector. The tissue uptake of injected radioactivity was determined as a percentage of the applied total injected activity per gram, %IA/g.
GraphPad Prism 6.07 was applied for statistical analysis and data fitting. One-way ANOVA and Bonferroni correction for multiple comparisons were applied for each organ. P values considered statistically significant were * p ≤ 0.05, ** p ≤ 0.01, *** p ≤ 0.001, and **** p ≤ 0.0001. The Student’s two-tailed t-test was applied for exploration statistics within a single organ-to-tumor comparison for one time point. Data are presented as the mean ± SEM.

## C[C@@H](O)[C@@H]1NC(=O)[C@H](CCCCN)NC(=O)[C@@H](Cc2c[nH]c3ccccc23)NC(=O)[C@H](Cc2cccc3ccccc23)NC(=O)[C@@H](NC(=O)[C@@H](Cc2ccccc2)NC(=O)CN2CCN(CC(=O)O)CCN(CC(=O)O)CCN(CC(=O)O)CC2)CSSC[C@@H](C(=O)N[C@H](CO)[C@@H](C)O)NC1=O [[^68Ga]Ga-DOTA-NOC, metal not drawn, reference compound] ({DOTA}-[dF]C[1Nal][dW]KTC[Thr(ol)]; disulfide 2-7 (inferred))
[1]
  partition coefficient, LogP: −1.42
AR42J xenograft; AR42J xenograft mice
  tumor-to-blood ratio, 1 h p.i.: 35
  tumor-to-liver ratio, 1 h p.i.: 3.7
AR42J xenograft; male SCID mice, subcutaneous AR42J xenograft, tail vein injection app. 45 pmol, n = 3-4, mean ± SEM
  tumor uptake at 1 h p.i.: 26.4 ± 10.8 % ID/g
